Converted amounts (≈) assume the structure as drawn. Where two headings read alike, the source gives them in different places.
Tests used:
HL-60 cells = assay: in vitro; type: cell-based; conditions: HL-60 cells, 48 hours, XTT
[1] = target: T1, recombinant human Monoamine Oxidase B (MAO-B) (Homo sapiens, UniProt P27338); assay: biochemical; type: biochemical
T1 sequence (P27338 1-520): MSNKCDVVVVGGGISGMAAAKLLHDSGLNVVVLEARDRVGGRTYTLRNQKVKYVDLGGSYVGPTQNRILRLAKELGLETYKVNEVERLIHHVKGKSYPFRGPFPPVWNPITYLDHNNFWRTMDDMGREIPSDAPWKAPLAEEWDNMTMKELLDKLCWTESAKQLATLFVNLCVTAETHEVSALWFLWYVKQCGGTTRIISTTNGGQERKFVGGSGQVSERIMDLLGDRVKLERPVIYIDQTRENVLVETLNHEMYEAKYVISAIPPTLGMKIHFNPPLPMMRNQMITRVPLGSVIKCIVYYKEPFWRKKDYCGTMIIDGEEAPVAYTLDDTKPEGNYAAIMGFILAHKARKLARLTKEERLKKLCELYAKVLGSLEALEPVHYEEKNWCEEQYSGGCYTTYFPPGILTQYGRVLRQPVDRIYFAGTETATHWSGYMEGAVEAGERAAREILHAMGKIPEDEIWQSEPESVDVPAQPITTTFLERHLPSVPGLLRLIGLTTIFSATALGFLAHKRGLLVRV

[2] = target: T2, recombinant human Monoamine Oxidase A (MAO-A) (Homo sapiens, UniProt P21397); assay: kynuramine deamination assay, recombinant human MAO-A; type: biochemical; conditions: for MAO-A inhibitory activity in words: pure compounds; for MAO-A activity more potent than MAO-B: ratio of MAO-B to MAO-A IC50
T2 sequence (P21397 1-527): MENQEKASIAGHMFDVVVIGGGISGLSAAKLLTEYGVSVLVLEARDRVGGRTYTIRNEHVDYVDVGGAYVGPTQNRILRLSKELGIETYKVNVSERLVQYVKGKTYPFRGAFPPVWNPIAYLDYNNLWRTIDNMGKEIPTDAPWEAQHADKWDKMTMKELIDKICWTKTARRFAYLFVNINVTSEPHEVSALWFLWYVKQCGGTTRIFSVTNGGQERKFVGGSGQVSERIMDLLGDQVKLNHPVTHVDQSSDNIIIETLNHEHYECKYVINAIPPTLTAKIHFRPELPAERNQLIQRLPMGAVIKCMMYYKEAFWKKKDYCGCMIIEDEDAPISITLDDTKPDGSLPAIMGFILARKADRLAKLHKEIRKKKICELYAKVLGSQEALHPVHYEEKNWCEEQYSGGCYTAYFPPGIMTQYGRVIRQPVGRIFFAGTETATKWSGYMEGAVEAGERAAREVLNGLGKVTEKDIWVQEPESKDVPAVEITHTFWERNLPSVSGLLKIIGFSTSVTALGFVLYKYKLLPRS

[3] = tested on: ROS generation in Myelomonocytic HL-60 cells; assay: cell based antioxidant assay, inhibition of PMA-induced ROS generation; conditions: for IC50: Homo sapiens, HL-60, read-out: Antioxidant IC50; for Antioxidant IC50: inhibition of PMA-induced ROS generation in HL-60 cells
in vitro = type: cell-based; conditions: human
PC12 cells = conditions: ref Cho et al., 2008, Heo and Lee, 2005; cited from earlier work
MAO-A = conditions: liver homogenate; ref Schwartz et al., 2003; cited from earlier work
rat striatal slices = conditions: ref Schwartz et al., 2003; cited from earlier work
[4] = read-out: MAO-B IC50, pure compounds and standards
[5] = read-out: MAO-A IC50, pure compounds and standards

Compound	Cytotoxicity IC50 (HL-60 cells)	IC50 [1, 4] [µM]	IC50 [2, 5] [µM]	IC50 [3] [µg/mL]	IC50 at 48 h (in vitro) [µg/mL]	Antioxidant IC50 [3]	also measured
banistenoside B [compound 2]	7.8 µg/mL	> 100	21.5	–	–	–	–
Cc1c(C)c2c(c(C)c1O)CCC(C)(C(=O)O)O2 (stereo not drawn) [trolox, reference compound]	–	–	–	0.14 (≈ 0.559 µM)	–	–	–
Oc1cc(O)c2c(c1)O[C@H](c1ccc(O)c(O)c1)[C@H](O)C2 [compound 8, (−)-2R,3R–Epicatechin]	–	–	–	< 0.13	6.3 (≈ 21.7 µM)	–	IC50 [1]: 65 µM; IC50 [2]: 51.7 µM; protection from Aβ-induced neurotoxicity in words (PC12 cells): protection
banistenoside A [compound 1]	>12.5 µg/mL	> 100	4.9	–	–	NA (NA = No antioxidant activity upto 31.25 µg/mL)	–
COc1ccc2c3c([nH]c2c1)[C@@H](C)NCC3 [compound 5, tetrahydroharmine]	NC (NC = No cytotoxicity to HL-60 cells up to 31.25 µg/mL)	> 100	0.074	–	–	NA (NA = No antioxidant activity upto 31.25 µg/mL)	MAO-A inhibitory activity in words [2]: much weaker than 6 or 7
COc1ccc2c(c1)[nH]c1c(C)nccc12 [compound 7, harmine]	–	–	–	> 31.2	> 31.2	–	IC50 [1]: 20 µM; inhibition of MAO-A in words (MAO-A): concentration-dependent inhibition; MAO-A activity more potent than MAO-B [2]: > 10,000 fold; release of dopamine in words (rat striatal slices): increase
COc1ccc2c3c([nH]c2c1)C(C)=NCC3 [compound 6, harmaline]	–	–	–	> 31.2	25 (≈ 117 µM)	–	IC50 [1]: 25 µM; MAO-A activity more potent than MAO-B [2]: > 10,000 fold
Cc1[nH]ccc2c1[nH]c1cc(=O)ccc12 [compound 3, harmol]	–	–	–	–	–	–	IC50 [2]: 0.018 µM; MAO-A inhibitory activity in words [2]: much weaker than 6 or 7
Oc1cc(O)c2c(c1)O[C@H](c1ccc(O)c(O)c1)[C@H](O)[C@H]2c1c(O)cc(O)c2c1O[C@H](c1ccc(O)c(O)c1)[C@H](O)C2 [compound 9, (−)-2R,3R-epicatechin-4β,8-(−)-2R,3R-epicatechin]	NC (NC = No cytotoxicity to HL-60 cells up to 31.25 µg/mL)	35	8.5	–	–	0.57 µg/mL	–
O=C1O[C@H]([C@@H](O)CO)C(O)=C1O [Vitamin C, reference compound]	–	–	–	–	–	1.34 µg/mL	–
COc1cccc2c1C(=O)c1c(O)c3c(c(O)c1C2=O)C[C@@](O)(C(=O)CO)C[C@@H]3O[C@H]1C[C@H](N)[C@H](O)[C@H](C)O1 [Doxorubicin, reference compound]	–	–	–	–	0.2 to 0.35 (≈ 0.368 to 0.644 µM)	–	–

— publication PMC2828149 (Journal of ethnopharmacology, 2009)
